This is an account of results in paper PMC8879660, “Characterizing the Physicochemical Properties of Two Weakly Basic Drugs and the Precipitates Obtained from Biorelevant Media” (Pharmaceutics, 2022).

As a reminder, the solubility is the concentration that dissolves in the medium under given conditions. As usually defined, the pKa is the pH at which an ionisable group is half protonated.

A short description of data set [1]: Equilibrium solubility of API in different media. In kind it is physicochemical. Particulars: 37 °C, 200 rpm. The method, then:
To select an appropriate method for the preparation of precipitates, the equilibrium solubility of model drugs was firstly investigated in various media, including pH 1.0 HCl solution, pH 5.0, pH 6.5, and pH 8.0 phosphate buffer solution (PBS), fasted state simulated intestinal fluid (FaSSIF, Fa), and fed-state simulated intestinal fluid (FeSSIF, Fe). The excess sample was added to the medium, and the test of equilibrium solubility was performed with the stirring rate of 200 revolutions per minute (rpm) under 37 °C for 24 h. Sample concentration was detected every minute by Pion’s in situ fiber-optic UV dissolution monitoring system (Pion Scientific Instruments, Billerica, MA, USA), a real-time online detector. All measurements were performed in triplicate.

Data set [2] can be described thus: Equilibrium solubility / dissolution of precipitates and API in pH 6.5 FaSSIF buffer. Type of data set: physicochemical. To be noted: FaSSIF buffer pH 6.5, 37 °C. The procedure: To estimate the solution properties of different crystal structures in near neutral or slightly acidic environments, the equilibrium solubility of various precipitates and API in the pH 6.5 FaSSIF buffer medium (FaB) was investigated. An excess sample was added to the medium, and the test of equilibrium solubility was performed with the stirring rate of 200 revolutions per minute (rpm) under 37 °C for 24 h. Sample concentration was detected every minute by Pion’s in situ fiber-optic UV dissolution monitoring system. All measurements were performed three times.

The nature of data set [3]: Intrinsic dissolution rate (disc method, Mini-IDR). Type of data set: physicochemical. To be noted: same dissolution medium, 37 °C, 200 rpm. The method, then: The intrinsic dissolution rate (IDR) of compounds with different crystal structures was measured by the disc method based on the literature. About 10 mg of powder was loaded into the Mini-IDR compression system (Pion Inc., Billerica, MA, USA) and compressed at 100 psi (rivaroxaban) and 200 psi (Drug-A) for 1 min to obtain the miniaturized discs with a surface area of 0.071 cm^2. The discs were inserted into stirrer-die assembly and placed into flat-bottomed glass vials for dissolution analysis. At the start of the experiments, the magnetic stirrer was immediately switched on with the speed of 200 rpm, and then 10 mL of preheated (37 °C) dissolution media (FaSSIF buffer medium, FeSSIF buffer medium, FaSSIF medium and FeSSIF medium) were added into the vials at a constant temperature. The concentration was determined directly in the dissolution media every 30 s using an in situ UV probe for 2 h. All experiments were performed in triplicate, and the IDR was calculated with the following equation [30]:(1) IDR=V×dc/dt×1/A where V is the volume of medium in the glass vial; dc/dt is the slope of the straight line from the dissolution profile; A is the surface area of the disc.

Data set [4] can be described thus: Stirring PAMPA permeability assay of precipitates and API in different donor media. In kind it is in vitro ADME. The method, then: In order to simulate the permeation of compounds in different crystal structures in the GI tract, the stirring PAMPA method (Pion Inc., Billerica, MA, USA) was used to assess the passive transcellular permeability. The donor and acceptor chambers representing the GI tract and systemic circulation were separated by the artificial membrane (PVDF, polyvinylidenfluoride, 0.45 μm, 0.78 cm^2). The membrane surface was coated with 20 μL of lipid, which was used to simulate the microenvironment of lipids in vivo. Then, 16 mL PBS/FaSSIF/FeSSIF medium with pH 5.0 was added into the donor chamber, and 16 mL sink buffer was added into the acceptor chamber. In order to simulate the redissolution progress of precipitate in the GI tract, a slight excess of crystalline powder was added into the donor chamber. Both chambers were stirred at 200 rpm at 37 °C, and the concentration of each chamber was detected by immersed UV-probes at 320 nm and 340 nm for rivaroxaban and Drug-A, respectively. The flux was defined as the amount of compound passing through the unit area perpendicular to its flow direction in unit time and was calculated by the following equation [31]:(2) J(t)=Ct2−Ct1/A(t2−t1)×V where J(t) is the flux of a compound; Ct is the concentration of compound at t; V is the solution volume of the donor chamber; A is the area of the artificial membrane. […]
For orientation: PAMPA measures passive passage across an artificial lipid membrane.

The conditions of data set [5]: stated in Materials, source not given; cited from earlier work.

Values after ≈ are worked out from the molar mass of the structure shown. Read-outs that look alike come from different tables or passages of the source.

Regarding `O=C(NC[C@H]1CN(c2ccc(N3CCOCC3=O)cc2)C(=O)O1)c1ccc(Cl)s1` [Rivaroxaban], the solubility at 24 h is 6.17 µg/mL (≈ 14.2 µM) in data set [1] (FaSSIF, n = 3, read-out: Solubility of API, FaSSIF); 10.6 µg/mL (≈ 24.3 µM) in data set [1] (FeSSIF, n = 3, read-out: Solubility of API, FeSSIF); 6.84 µg/mL (≈ 15.7 µM) in data set [1] (pH 1.0 HCl solution, n = 3, read-out: Solubility of API, pH 1.0 HCl); 4.85 µg/mL (≈ 11.1 µM) in data set [1] (pH 5.0 phosphate buffer solution (PBS), aqueous buffer, thermodynamic from solid, pH 5.0 PBS, n = 3, read-out: Solubility of API, pH 5.0 PBS); 5.85 µg/mL (≈ 13.4 µM) in data set [1] (pH 6.5 phosphate buffer solution (PBS), pH 6.5 PBS, n = 3, read-out: Solubility of API, pH 6.5 PBS); 5.87 µg/mL (≈ 13.5 µM) in data set [1] (pH 8.0 phosphate buffer solution (PBS), pH 8.0 PBS, n = 3, read-out: Solubility of API, pH 8.0 PBS). For the same compound, the “Dissolved rate of precipitates compared with API” value in data set [2] is “higher than that of API”. In data set [2] (24 h, precipitates from FaSSIF, 0.5 × FeSSIF, FeSSIF, 2 × FeSSIF), the “Difference in equilibrium solubility between API and precipitates obtained from biorelevant media” value was “no statistical difference”. Further, the “Influence of crystal structure (API vs precipitates) on intrinsic dissolution rate” value in data set [3] was “significant influence”. Besides, the “Permeability of API compared with precipitates” value in data set [4] (FeSSIF in the donor chamber) is “larger than that of precipitates obtained from biorelevant media”. The “Permeability in donor chamber containing aqueous medium relative to donor chamber containing biorelevant medium” value in data set [4] (donor pH 5.0 PBS vs biorelevant medium, 37 °C, 200 rpm) was “about 1.92 fold”. For the same compound, the log p in data set [5] is 1.90. In data set [5], the pKa was 13.6.
